This assay deals with L1210 leukemia ip in BDF1 mice, survival T/C. The experiment in a line: NCI In Vivo Anticancer Drug Screen. Data for tumor model L1210 Leukemia (intraperitoneal) in B6D2F1 (BDF1) mice. The settings on record: endpoint: mean survival time, higher = longer survival. The essentials: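 In this screen, tumor-bearing mice given compound are compared to those given vehicle, and their survival values are reported as a treated-to-control quotient.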

[1] abbreviates: dose: 100.0 mg/kg/injection, schedule: Q01DX009 (ip), vehicle: Klucel (hydroxypropylcellulose) (HPC).
Where [2] appears, read: dose: 100.0 mg/kg/injection, schedule: Q04DX003 (ip), vehicle: Klucel (hydroxypropylcellulose) (HPC).
[3] abbreviates: dose: 200.0 mg/kg/injection, schedule: Q01DX009 (ip), vehicle: Klucel (hydroxypropylcellulose) (HPC).
Where [4] appears, read: dose: 200.0 mg/kg/injection, schedule: Q04DX003 (ip), vehicle: Klucel (hydroxypropylcellulose) (HPC).
The mark [5] stands for this setting: dose: 400.0 mg/kg/injection, schedule: Q01DX009 (ip), vehicle: Klucel (hydroxypropylcellulose) (HPC).
Setting [6] is: dose: 400.0 mg/kg/injection, schedule: Q04DX003 (ip), vehicle: Klucel (hydroxypropylcellulose) (HPC).
The mark [7] stands for this setting: dose: 50.0 mg/kg/injection, schedule: Q01DX001 (ip), vehicle: saline.
Where [8] appears, read: dose: 100.0 mg/kg/injection, schedule: Q01DX001 (ip), vehicle: saline.
Where [9] appears, read: dose: 200.0 mg/kg/injection, schedule: Q01DX001 (ip), vehicle: saline.
The mark [10] stands for this setting: dose: 400.0 mg/kg/injection, schedule: Q01DX001 (ip), vehicle: saline.
Setting [11] is: dose: 100.0 mg/kg/injection, schedule: Q01DX001 (ip), vehicle: carboxymethylcellulose (CMC).
Where [12] appears, read: dose: 200.0 mg/kg/injection, schedule: Q01DX001 (ip), vehicle: carboxymethylcellulose (CMC).
Where [13] appears, read: dose: 400.0 mg/kg/injection, schedule: Q01DX001 (ip), vehicle: carboxymethylcellulose (CMC).
[14] abbreviates: dose: 100.0 mg/kg/injection, schedule: Q01DX009 (ip), vehicle: saline with Tween-80.
[15] abbreviates: dose: 200.0 mg/kg/injection, schedule: Q01DX009 (ip), vehicle: saline with Tween-80.
[16] abbreviates: dose: 400.0 mg/kg/injection, schedule: Q01DX009 (ip), vehicle: saline with Tween-80.

Several values for one entry are separate records, joined by “and”; a condition that tells them apart may be missing. Equal entries are not always repeated. Toxic doses and inconclusive results are not listed.

Regarding `COc1cc2ccc(C(C)NCC(=O)O)cc2cc1OC` (stereo not given), the T/C was 100 % of control under setting [1]; 93 % of control under setting [2]; 100 % of control under setting [3]; 90 % of control under setting [4]; 94 % of control under setting [5]; 90 % of control under setting [6].

For `Cc1ccc(C)c(Nc2cc(=O)[nH]c(=O)[nH]2)c1`, the T/C (dose: 100.0 mg/kg/injection, schedule: Q04DX003 (ip), vehicle: gum acacia) was 93 % of control; the T/C (dose: 200.0 mg/kg/injection, schedule: Q04DX003 (ip), vehicle: gum acacia) is 91 % of control; the T/C (dose: 400.0 mg/kg/injection, schedule: Q04DX003 (ip), vehicle: gum acacia) was 87 % of control.

In the case of `Nc1nc(CCc2ccc(NC(=O)CBr)cc2)c(CCCCc2ccccc2)c(=O)[nH]1`, the T/C was 104 % of control under setting [7], 102 % of control under setting [8], 96 % of control under setting [9] and 110 % of control under setting [10].

Take `CC1C(=O)NN=C1c1ccc([N+](=O)[O-])cc1` (stereo not given): the T/C reads like this: under setting [11], 100 % of control; under setting [12], 100 % of control; under setting [13], 94 % of control.

`ClCC(Cl)C1CCC(Cl)C(Cl)C1` (stereo not given): the T/C (dose: 50.0 mg/kg/injection, schedule: Q01DX009 (ip), vehicle: other) is 95 % of control; the T/C (dose: 100.0 mg/kg/injection, schedule: Q01DX009 (ip), vehicle: other) is 90 % of control; the T/C (dose: 200.0 mg/kg/injection, schedule: Q01DX009 (ip), vehicle: other) was 90 % of control.

`Nc1ccc(OCCNS(=O)(=O)c2ccc(S(=O)(=O)F)cc2)c(Cl)c1`: the T/C is, setting by setting: (dose: 25.0 mg/kg/injection, schedule: Q04DX003 (ip), vehicle: Klucel (hydroxypropylcellulose) (HPC)) 97 % of control; (dose: 50.0 mg/kg/injection, schedule: Q01DX001 (ip), vehicle: saline with Tween-80) 91 % of control; (dose: 50.0 mg/kg/injection, schedule: Q04DX003 (ip), vehicle: Klucel (hydroxypropylcellulose) (HPC)) 97 % of control; (dose: 100.0 mg/kg/injection, schedule: Q01DX001 (ip), vehicle: saline with Tween-80) 92 % of control; under setting [2], 99 % of control and 105 % of control; (dose: 200.0 mg/kg/injection, schedule: Q01DX001 (ip), vehicle: saline with Tween-80) 100 % of control.

As to `CCOC(=O)COc1c(C(C)CC)cc([N+](=O)[O-])cc1[N+](=O)[O-]` (stereo not given), the T/C by setting is: (dose: 25.0 mg/kg/injection, schedule: Q01DX009 (ip), vehicle: gum acacia) 93 % of control; (dose: 25.0 mg/kg/injection, schedule: Q04DX002 (ip), vehicle: gum acacia) 104 % of control; (dose: 50.0 mg/kg/injection, schedule: Q01DX009 (ip), vehicle: gum acacia) 93 % of control; (dose: 50.0 mg/kg/injection, schedule: Q04DX002 (ip), vehicle: gum acacia) 100 % of control; (dose: 100.0 mg/kg/injection, schedule: Q01DX009 (ip), vehicle: gum acacia) 90 % of control; (dose: 100.0 mg/kg/injection, schedule: Q04DX002 (ip), vehicle: gum acacia) 100 % of control and 92 % of control.

For `Cc1cc(Cl)ccc1OC(=O)Nc1c(C)cccc1C`, the T/C was 101 % of control under setting [1]; 98 % of control under setting [2]; 101 % of control under setting [3]; 103 % of control under setting [4]; 89 % of control under setting [5]; 101 % of control under setting [6].

Turning to `Cc1ccc(NC(=O)N(CCI)N=O)cc1`, the T/C is, setting by setting: (dose: 17.0 mg/kg/injection, schedule: Q01DX015 (ip), vehicle: carboxymethylcellulose (CMC)) 110 % of control; (dose: 58.0 mg/kg/injection, schedule: Q01DX015 (ip), vehicle: carboxymethylcellulose (CMC)) 161 % of control; (dose: 88.0 mg/kg/injection, schedule: Q01DX015 (ip), vehicle: carboxymethylcellulose (CMC)) 157 % of control; (dose: 133.0 mg/kg/injection, schedule: Q01DX015 (ip), vehicle: carboxymethylcellulose (CMC)) 92 % of control; (dose: 177.0 mg/kg/injection, schedule: Q01DX001 (ip), vehicle: carboxymethylcellulose (CMC)) 121 % of control; (dose: 200.0 mg/kg/injection, schedule: Q01DX015 (ip), vehicle: carboxymethylcellulose (CMC)) 111 % of control and 113 % of control. Also, under setting [13], the T/C was 159 % of control.

In the case of `CCOC(=O)/C(C#N)=C(/C)C1CC1`, the T/C is 95 % of control (dose: 6.25 mg/kg/injection, schedule: Q01DX009 (ip), vehicle: Klucel (hydroxypropylcellulose) (HPC)); 105 % of control (dose: 12.5 mg/kg/injection, schedule: Q01DX009 (ip), vehicle: Klucel (hydroxypropylcellulose) (HPC)); 97 % of control (dose: 25.0 mg/kg/injection, schedule: Q01DX009 (ip), vehicle: Klucel (hydroxypropylcellulose) (HPC)); 95 % of control (dose: 75.0 mg/kg/injection, schedule: Q01DX001 (ip), vehicle: carboxymethylcellulose (CMC)); 105 % of control (dose: 150.0 mg/kg/injection, schedule: Q01DX001 (ip), vehicle: carboxymethylcellulose (CMC)).

With `C(=C\c1ccccc1)/C=N/N=C/C=C/c1ccccc1`, the T/C was 105 % of control (dose: 100.0 mg/kg/injection, schedule: Q01DX001 (ip), vehicle: other); 94 % of control under setting [14]; 100 % of control (dose: 100.0 mg/kg/injection, schedule: Q04DX002 (ip), vehicle: Klucel (hydroxypropylcellulose) (HPC)); 90 % of control (dose: 100.0 mg/kg/injection, schedule: Q04DX003 (ip), vehicle: saline with Tween-80); 97 % of control (dose: 200.0 mg/kg/injection, schedule: Q01DX001 (ip), vehicle: other); 90 % of control under setting [15]. The T/C (dose: 200.0 mg/kg/injection, schedule: Q04DX002 (ip), vehicle: Klucel (hydroxypropylcellulose) (HPC)) is 96 % of control; the T/C (dose: 200.0 mg/kg/injection, schedule: Q04DX003 (ip), vehicle: saline with Tween-80) was 89 % of control; the T/C (dose: 400.0 mg/kg/injection, schedule: Q01DX001 (ip), vehicle: other) is 94 % of control; the T/C under setting [16] was 94 % of control; the T/C (dose: 400.0 mg/kg/injection, schedule: Q04DX002 (ip), vehicle: Klucel (hydroxypropylcellulose) (HPC)) was 100 % of control; the T/C (dose: 400.0 mg/kg/injection, schedule: Q04DX003 (ip), vehicle: saline with Tween-80) is 92 % of control.

Turning to `COc1ccc(/C=N/Nc2nnc(N/N=C/c3ccc(OC)c(O)c3)c3ccccc23)cc1O`, the T/C is 103 % of control (dose: 50.0 mg/kg/injection, schedule: Q01DX001 (ip), vehicle: carboxymethylcellulose (CMC)); 103 % of control under setting [11]; 103 % of control under setting [12]; 100 % of control under setting [13].

As to `CC(=O)C1(c2ccccc2)OC1c1ccccc1` (stereo not given), the T/C is, setting by setting: (dose: 50.0 mg/kg/injection, schedule: Q01DX009 (ip), vehicle: Klucel (hydroxypropylcellulose) (HPC)) 96 % of control; under setting [1], 112 % of control; under setting [2], 90 % of control; under setting [3], 96 % of control; under setting [4], 95 % of control.

Regarding `C1CNC(NC23CC4CC(CC(C4)C2)C3)=N1`, under setting [1], the T/C was 98 % of control.

On to `CCOP(=O)(OCC)OCc1cnc(SC)nc1N`, for which the T/C under setting [7] was 99 % of control and the T/C under setting [8] is 108 % of control.

Take `Cc1ccc(S(=O)(=O)NC(=O)NCCS)cc1`: the T/C reads like this: (dose: 100.0 mg/kg/injection, schedule: Q04DX003 (ip), vehicle: saline) 100 % of control; (dose: 200.0 mg/kg/injection, schedule: Q04DX003 (ip), vehicle: saline) 102 % of control; (dose: 400.0 mg/kg/injection, schedule: Q04DX003 (ip), vehicle: saline) 96 % of control.

With `CC(C)(C)CC(C)(C)N(CSc1ccc(Cl)cc1)CSc1ccc(Cl)cc1`, the T/C is, setting by setting: under setting [8], 100 % of control; under setting [9], 93 % of control; under setting [10], 87 % of control.

On to `CCC(=O)Nc1cccc(OC(C)=O)c1`, for which the T/C under setting [14] is 91 % of control, the T/C under setting [15] was 90 % of control and the T/C under setting [16] was 107 % of control.

Take `CCOCCOC(=O)COCC(=O)OCCOCC`: the T/C by setting is: under setting [8], 100 % of control; under setting [9], 94 % of control; under setting [10], 98 % of control.

The values are drawn from PubChem BioAssay AID248 (DTP/NCI, 2004).
